Experimental data published in patent US20170261507A1, “Methods for Predicting and Monitoring Cancer Patients' Response to Teatment by Measuring Myeloid Derived Suppressor Cells (MDSCs)” (YISSUM RESEARCH DEVELOPMENT COMPANY OF THE HEBREW …, priority 2014, published 2017).

Test system: stage-4 melanoma patients
Test: Ipilimumab treatment of stage-4 metastatic melanoma patients: response and survival
Assay type: in vivo, human
Experimental: The percentage of MDSC with the profile CD11b^+CD33^+HLA-DR^− was measured in peripheral blood samples (3-5 ml) of healthy donors (n=40) and stage-4 melanoma patients (n=56) prior to ipilimumab (anti-CTLA4) treatment. All the melanoma patients were diagnosed with metastatic melanoma. The samples were taken according to the Helsinki approval. Clinical parameters were acquired from the medical records of patients.
In order to evaluate whether MDSC levels in the blood can predict responsiveness to treatment with the anti CTLA4 antibody ipilimumab, the levels of MDSC in the peripheral blood of melanoma patients were measured, as described above, prior to treatment with ipilimumab. […] As shown in FIG. 3A there was a strike correlation between high levels of MDSC in the peripheral blood of patients and subsequent failure to respond to treatment with ipilimumab. Clearly, this parameter could distinguish between the two groups of melanoma patients. In addition, the level of lactate dehydrogenase (LDH) was evaluated before the treatment with ipilimumab began. There was no significant difference between the groups of patients with respect to this parameter (FIG. 3B).
The following experiment was performed in order to evaluate whether MDSC levels in the blood can predict metastatic severity and patient survival. The levels of MDSC, as well as the levels of LDH, were measured in the peripheral blood of melanoma patients, as described above, prior to treatment with ipilimumab. […] In addition, as shown in FIG. 4B higher MDSCs levels are found in the group of patients with high LDH levels (LDH low<480 U/I; LDH high>480 U/I). In addition, the melanoma patients were divided into two groups according to their MDSCs levels measured prior to the ipilimumab treatments; one group was termed Low MDSCs (<55.5%, n=39) and the other group was termed High MDSCs (>55.5%, n=14). The percent survival and their survival in months were evaluated. […] The survival in months of the Low MDSCs group being 11.56±1.2 (n=39) and of the High MDSCs group being 6.857±1.4 (n=14). Apparently, high MDSC levels are predictors of a more severe metastatic profile and of a shorter survival time of the cancer patient.
In this experiment the survival of melanoma patients was correlated with the severity of their metastatic stage and with their LDH levels. The patients were divided into two groups according to their metastatic level prior to ipilimumab treatments; the first group included patients with the relatively lower metastatic severity, namely M1A/B/C, and the second group included patients with the higher, M2, metastatic severity. As shown in FIGS. 5A and 5B the survival of patients in the M1A/B/C group was higher than the survival of the patients in the M2 group, being 12.4±1.2 months (n=35) in the M1A/B/C group and 6.1±1.1 months (n=18) in the M2 group. The patients were divided into two groups according their LDH levels prior to ipilimumab treatments; the first group included patients with the relatively lower LDH level, namely LDH<480 U/I; and the second group included patients with the higher LDH level, namely LDH>480 U/I. As shown in FIGS. 5C and 5D the survival of patients in the LDH low group was higher than the survival of the patients in the LDH high group, being 13.5±1.4 months (n=28) in the LDH low group and 6.6±0.9 months (n=20) in the LDH high group. Apparently, high LDH levels and a severe metastatic stage are predictors of a shorter survival time of the cancer patient.
These patients had high LDH levels on the day the first ipilimumab treatment was given and their staging level was M1C.

For “ipilimumab: humanized anti-CTLA4 monoclonal antibody”, the survival in months (LDH high group (>480 U/I, n=20) prior to ipilimumab) was 6.6±0.9 months, the survival in months (LDH low group (<480 U/I, n=28) prior to ipilimumab) was 13.5±1.4 months and the survival in months (M1A/B/C group (n=35), metastatic level prior to ipilimumab) was 12.4±1.2 months. It also gave a survival in months (M2 group (n=18), metastatic level prior to ipilimumab) of 6.1±1.1 months, a survival in months (melanoma patients, High MDSCs group (>55.5%, n=14) prior to ipilimumab) of 6.857±1.4 months and a survival in months (melanoma patients, Low MDSCs group (<55.5%, n=39) prior to ipilimumab) of 11.56±1.2 months. For the same substance, the “patients that responded to the ipilimumab treatment” value (out of the 56 patients involved in this study) was 14 patients.
